Laboratory results reported in patent publication US12404332B2, “Methods for diagnosing and treating cancers” (Research Development Foundation, priority 2020, dated 2025).
Entries after “also recorded” stand apart in the source; their conditions may differ.

Legend:
Chk2 = Chk2 protein content by immunoblot in B16-F10 cells; assay type: cell-based, mouse; conditions: PD-L1^KO but not CTRL B16-F10 cells
ID8agg cells = experiment: Erlotinib plus olaparib in ID8agg cells (MTT); assay type: cell-based, mouse
Procedure: 1,000 ID8agg cells were plated per well in 96 well plates. Cells were treated with 1, 2, or 3 μM of erlotinib and 5 μM or olaparib.

[1] = system: RT4 human bladder cancer cells; experiment: In vitro viability (MTT) of CTRL versus PD-L1^KO RT4 cells; assay type: cell-based; conditions: for sensitivity of PD-L1^KO versus control RT4 cells to the agent: monotherapy
Procedure: (§1) Cells (1×10^3) were plated in 96 well plastic culture plates in respective medium and treated for 5 days with DDRi or 3 days with gemcitabine at indicated concentrations. Drug concentrations were carefully optimized in preliminary work not shown. Cell viability was by MTT (3-(4,5-dimethylthiazol-2-yl)-2,5-diphenyl tetrazolium bromide) at 5 mg/ml. Absorbance was measured at 540 nm. Results are presented as a mean+/−SEM of ≥6 replicates. Total cells and viability were confirmed using a Vi-Cell-XR (Beckman Coulter).

[2] = system: ID8agg murine ovarian cancer cells; experiment: In vitro viability (MTT) of CTRL versus PD-L1^KO ID8agg cells; assay type: cell-based, mouse
Procedure: as §1

γH2AX in RT4 cells = experiment: γH2AX immunoblot (DNA damage) in RT4 cells; assay type: cell-based, human
Procedure: (§2) Immunoblotting was performed as described (Clark et al., 2016; Gupta et al., 2016). Protein was measured by BCA (ThermoFisher). Cell Signaling antibodies were phospho-histone H2A.X (#9718), phospho-Chk1^Ser345 (#2348), phosph-Chk2^Thr68 (#2197), phospho-ATM^Ser1981 (#5883), phospho-ATR^Ser428 (#2853), total-Chk1 (#2360), total-chk2 (#2662), total-ATM (#2873), total-ATR (#13934), total-NBS1 (#14956), total-Rad50 (#3427), RAD51, vinculin (#13901), beta-actin (#12620), human-PD-L1 (#13684), mouse-PD-L1. Abcam antibodies were (ab3801) and (ab80276) and total-BRCA1 was R&D MAB22101. All were used as per manufacturer's recommendation.

γH2AX in ID8agg cells = experiment: γH2AX immunoblot (DNA damage) in ID8agg cells; assay type: cell-based, mouse
Procedure: as §2

PD-L1 = PD-L1 after DNA damaging agents; assay type: cell-based
[3] = system: MB49 murine bladder cancer cells; experiment: In vitro viability (MTT) of CTRL versus PD-L1^KO MB49 cells; assay type: cell-based, mouse
Procedure: as §1

[4] = system: B16 murine melanoma cells; experiment: In vitro viability (MTT) of CTRL versus PD-L1^KO B16 cells; assay type: cell-based, mouse
Procedure: as §1

[5] = system: CTRL or PD-L1^KO MB49 tumors; experiment: MB49 tumor growth in NSG mice; assay type: in vivo, mouse; conditions: PD-L1^KO but not control MB49 tumors
Procedure: NSG mice were challenged with MB49 (0.3×10^6 cells) subcutaneously on opposite flanks. Olaparib (daily 25 mg/kg, 4% DMSO) was injected intraperitoneally on days 3-11. 4T1 (0.5×10^6 cells) were injected into mammary fat pads of NSG mice with Matrigel (1:1, Corning). Rabusertib (LY2602618, 4% DMSO) was administered intraperitoneally on day 3 (10 mg/kg) and days 10 and 17 (1 mg/kg).

[6] = system: CTRL or PD-L1^KO B16 tumors; experiment: B16 tumor growth in wild type or RAG2^KO mice; assay type: in vivo, mouse
Procedure: B16 cells were injected subcutaneously on opposite flanks into BL6 (0.5×10^6 cells) or RAG2^KO mice (0.4×10^6). Olaparib was administered daily intraperitoneally (50 mg/kg, 4% DMSO) on days 3-13. Tumors were measured with Vernier calipers and volume calculated as (length×width^2)/2. Mice were sacrificed when tumors reached ˜1500 mm^3 or if distressed.

Structure (SMILES): CO/C1=C\C(C)=C\[C@@H](C)[C@@H](O)[C@@H](C)C/C(C)=C/C=C/[C@H](OC)[C@@H]([C@@H](C)[C@@H](O)[C@H](C)[C@@]2(O)C[C@@H](O)[C@H](C)[C@@H](C(C)C)O2)OC1=O [Bafilomycin A1]
- Chk2 accumulation (Chk2): led to Chk2 accumulation

Structure (SMILES): C#Cc1cccc(Nc2ncnc3cc(OCCOC)c(OCCOC)cc23)c1 [erlotinib]
- olaparib activity in combination (ID8agg cells; FIG. 46A): Olaparib activity is seen with erlotinib
- PD-L1 depletion over time (ID8agg cells; previous western, 24 hours, but not at 48 hours): only depletes PD-L1 for short periods of time

Structure (SMILES): Nc1ccn([C@@H]2O[C@H](CO)[C@@H](O)C2(F)F)c(=O)n1 [gemcitabine]
- fold more sensitive to gemcitabine, PD-L1^KO versus control cells ([1]; RT4 cells): 2 fold
- sensitivity of PD-L1^KO versus control RT4 cells to the agent [1]: substantially lower viability
- fold more sensitive to gemcitabine, PD-L1^KO versus control cells ([2]; ID8agg cells): 29 fold
- γH2AX following treatment, PD-L1^KO versus control cells (γH2AX in RT4 cells): markedly elevated; also recorded: accumulated more γH2AX
- γH2AX following treatment, PD-L1^KO versus control cells (γH2AX in ID8agg cells): markedly elevated
- PD-L1 after DNA damaging agent (PD-L1): increased PD-L1

Structure (SMILES): O=C(c1cc(Cc2n[nH]c(=O)c3ccccc23)ccc1F)N1CCN(C(=O)C2CC2)CC1 [olaparib]
- sensitivity of PD-L1^KO versus control RT4 cells to the agent [1]: Minimal effects
- sensitivity of PD-L1^KO versus control ID8agg cells to the agent ([2]; monotherapy): Minimal effects
- sensitivity of PD-L1^KO versus control MB49 cells to the agent [3]: more sensitive
- cytotoxicity against PD-L1^KO versus control B16 cells [4]: Moderate differences
- tumor growth and weight after treatment [5]: robustly growth inhibited and weighed less
- limiting PD-L1^KO B16 tumors ([6]; RAG2^KO mice lacking adaptive immunity): ineffective
- control of PD-L1^KO versus control B16 growth ([6]; wild type mice): significantly more effective
